Laboratory results published in US7615569B2, “Inhibitors of ion channels” (Icagen, Inc., priority 2005, dated 2009).
pIC50: −log10 of the molar value.

How the values were obtained:
hSCN3A = target: T1, hSCN3A (Homo sapiens, UniProt Q9NY46); assay: SCN3A inhibitory activity in HEK cells stably expressing hSCN3A (whole-cell patch clamp / radiotracer efflux HTS); format: cell-based; conditions: HEK cells stably transfected with hSCN3A
T1 construct: expressed in transfected cells

Nav1.3 = Nav1.3 (Homo sapiens, UniProt Q9NY46); conditions: read-out: TTX IC-50; cited from earlier work
Nav1.9 = Nav1.9 (Homo sapiens, UniProt Q9UI33); conditions: read-out: TTX IC-50; cited from earlier work
Nav1.8 = Nav1.8 (Homo sapiens, UniProt Q9Y5Y9); conditions: read-out: TTX IC-50; cited from earlier work
Nav1.2 = Nav1.2 (Homo sapiens, UniProt Q99250); conditions: read-out: TTX IC-50; cited from earlier work
Nav1.1 = Nav1.1 (Homo sapiens, UniProt P35498); conditions: read-out: TTX IC-50; cited from earlier work
Nav1.6 = Nav1.6 (Homo sapiens, UniProt Q9UQD0); conditions: read-out: TTX IC-50; cited from earlier work
[1] = cited from earlier work

T1 sequence (Q9NY46 whole entry): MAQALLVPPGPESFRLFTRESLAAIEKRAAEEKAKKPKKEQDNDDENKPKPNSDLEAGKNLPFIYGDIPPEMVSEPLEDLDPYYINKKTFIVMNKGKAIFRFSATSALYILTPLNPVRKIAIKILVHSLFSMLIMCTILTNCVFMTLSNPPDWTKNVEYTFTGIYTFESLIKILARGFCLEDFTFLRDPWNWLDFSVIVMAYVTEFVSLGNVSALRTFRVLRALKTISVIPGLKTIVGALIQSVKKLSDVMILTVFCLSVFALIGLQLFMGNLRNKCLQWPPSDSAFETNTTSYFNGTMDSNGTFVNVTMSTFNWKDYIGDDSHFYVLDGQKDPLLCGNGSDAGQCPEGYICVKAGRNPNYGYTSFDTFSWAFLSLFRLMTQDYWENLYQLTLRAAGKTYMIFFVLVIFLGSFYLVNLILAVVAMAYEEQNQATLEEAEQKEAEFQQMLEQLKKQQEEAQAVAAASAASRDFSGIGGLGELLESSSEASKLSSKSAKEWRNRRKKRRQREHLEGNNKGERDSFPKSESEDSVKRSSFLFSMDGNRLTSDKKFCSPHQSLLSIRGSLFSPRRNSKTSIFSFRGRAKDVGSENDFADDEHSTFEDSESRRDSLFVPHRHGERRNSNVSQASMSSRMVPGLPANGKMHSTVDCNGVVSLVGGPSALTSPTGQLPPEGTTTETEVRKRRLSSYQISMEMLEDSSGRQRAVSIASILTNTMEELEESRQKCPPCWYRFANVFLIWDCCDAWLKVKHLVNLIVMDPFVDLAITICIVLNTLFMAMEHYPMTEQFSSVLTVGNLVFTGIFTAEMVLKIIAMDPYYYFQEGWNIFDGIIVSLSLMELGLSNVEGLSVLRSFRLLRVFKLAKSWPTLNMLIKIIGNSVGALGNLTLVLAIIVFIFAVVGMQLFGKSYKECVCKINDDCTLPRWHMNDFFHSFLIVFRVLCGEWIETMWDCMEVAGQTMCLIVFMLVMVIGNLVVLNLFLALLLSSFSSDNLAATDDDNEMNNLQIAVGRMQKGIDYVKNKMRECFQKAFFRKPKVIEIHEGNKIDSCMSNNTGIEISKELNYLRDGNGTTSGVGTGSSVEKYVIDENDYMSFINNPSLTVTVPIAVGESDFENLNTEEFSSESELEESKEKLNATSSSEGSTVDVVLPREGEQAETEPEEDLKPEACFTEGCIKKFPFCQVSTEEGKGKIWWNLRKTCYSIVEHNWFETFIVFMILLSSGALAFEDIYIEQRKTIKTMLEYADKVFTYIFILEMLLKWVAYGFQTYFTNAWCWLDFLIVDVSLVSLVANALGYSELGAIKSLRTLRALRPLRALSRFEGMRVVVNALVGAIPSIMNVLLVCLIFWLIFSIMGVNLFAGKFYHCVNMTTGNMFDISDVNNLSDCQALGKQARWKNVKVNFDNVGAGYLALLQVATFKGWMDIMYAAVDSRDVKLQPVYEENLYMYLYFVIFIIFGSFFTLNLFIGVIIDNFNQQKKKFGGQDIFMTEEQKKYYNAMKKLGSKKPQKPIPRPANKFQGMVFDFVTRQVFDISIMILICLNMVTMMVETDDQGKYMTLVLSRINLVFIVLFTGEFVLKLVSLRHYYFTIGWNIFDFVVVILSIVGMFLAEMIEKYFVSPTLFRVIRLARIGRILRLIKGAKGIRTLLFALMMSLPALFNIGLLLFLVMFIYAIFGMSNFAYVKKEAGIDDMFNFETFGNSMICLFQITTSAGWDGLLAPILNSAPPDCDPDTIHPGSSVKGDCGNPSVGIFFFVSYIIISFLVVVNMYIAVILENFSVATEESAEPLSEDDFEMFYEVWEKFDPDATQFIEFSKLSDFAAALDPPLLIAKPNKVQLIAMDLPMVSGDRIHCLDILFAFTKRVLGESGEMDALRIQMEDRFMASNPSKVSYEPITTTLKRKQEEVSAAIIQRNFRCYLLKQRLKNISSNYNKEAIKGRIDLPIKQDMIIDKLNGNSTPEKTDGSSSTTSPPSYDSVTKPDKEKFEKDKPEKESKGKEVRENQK
Chain of Nav1.9 (Q9UI33 whole entry, looked up): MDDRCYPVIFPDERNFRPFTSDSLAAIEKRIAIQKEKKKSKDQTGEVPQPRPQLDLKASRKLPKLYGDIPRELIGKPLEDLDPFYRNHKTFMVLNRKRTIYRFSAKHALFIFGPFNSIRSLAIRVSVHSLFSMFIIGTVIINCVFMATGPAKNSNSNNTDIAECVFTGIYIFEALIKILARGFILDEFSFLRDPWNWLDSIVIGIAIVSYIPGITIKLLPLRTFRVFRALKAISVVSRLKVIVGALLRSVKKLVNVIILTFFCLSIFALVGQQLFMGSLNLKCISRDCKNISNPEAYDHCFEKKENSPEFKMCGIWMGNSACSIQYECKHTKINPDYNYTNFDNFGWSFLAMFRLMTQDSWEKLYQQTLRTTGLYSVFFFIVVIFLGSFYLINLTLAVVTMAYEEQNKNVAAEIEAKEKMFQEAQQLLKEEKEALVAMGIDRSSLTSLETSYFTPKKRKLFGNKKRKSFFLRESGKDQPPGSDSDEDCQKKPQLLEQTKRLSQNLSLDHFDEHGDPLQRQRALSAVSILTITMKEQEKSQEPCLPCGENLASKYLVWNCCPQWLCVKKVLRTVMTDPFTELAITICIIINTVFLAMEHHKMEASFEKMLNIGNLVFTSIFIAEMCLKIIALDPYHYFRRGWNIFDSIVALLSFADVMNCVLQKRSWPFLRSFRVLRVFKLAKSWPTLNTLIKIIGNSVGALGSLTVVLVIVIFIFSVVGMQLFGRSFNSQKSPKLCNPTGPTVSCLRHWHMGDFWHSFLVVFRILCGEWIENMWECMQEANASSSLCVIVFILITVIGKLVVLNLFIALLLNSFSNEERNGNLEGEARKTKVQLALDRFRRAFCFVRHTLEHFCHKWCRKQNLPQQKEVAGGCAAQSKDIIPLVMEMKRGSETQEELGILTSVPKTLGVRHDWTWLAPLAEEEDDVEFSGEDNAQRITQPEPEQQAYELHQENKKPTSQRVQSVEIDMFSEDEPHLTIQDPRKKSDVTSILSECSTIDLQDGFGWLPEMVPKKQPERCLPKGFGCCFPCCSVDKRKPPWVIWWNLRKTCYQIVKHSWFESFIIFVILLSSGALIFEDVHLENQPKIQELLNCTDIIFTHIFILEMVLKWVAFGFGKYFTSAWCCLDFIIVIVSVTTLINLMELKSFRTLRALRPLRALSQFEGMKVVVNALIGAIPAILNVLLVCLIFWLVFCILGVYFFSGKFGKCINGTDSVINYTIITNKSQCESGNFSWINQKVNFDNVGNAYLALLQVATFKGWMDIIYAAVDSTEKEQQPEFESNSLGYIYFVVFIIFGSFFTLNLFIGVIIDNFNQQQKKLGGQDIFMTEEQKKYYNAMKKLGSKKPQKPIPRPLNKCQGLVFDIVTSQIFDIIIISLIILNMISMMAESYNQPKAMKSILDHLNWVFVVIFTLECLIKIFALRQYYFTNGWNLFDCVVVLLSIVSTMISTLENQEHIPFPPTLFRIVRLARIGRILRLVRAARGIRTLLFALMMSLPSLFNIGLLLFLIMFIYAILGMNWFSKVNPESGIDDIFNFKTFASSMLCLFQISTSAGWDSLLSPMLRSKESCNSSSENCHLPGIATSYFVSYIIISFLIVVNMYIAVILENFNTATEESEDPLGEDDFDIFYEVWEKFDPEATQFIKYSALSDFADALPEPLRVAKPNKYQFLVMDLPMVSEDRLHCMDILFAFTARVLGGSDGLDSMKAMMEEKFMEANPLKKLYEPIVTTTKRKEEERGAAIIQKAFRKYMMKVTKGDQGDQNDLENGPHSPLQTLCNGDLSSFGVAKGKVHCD
Chain of Nav1.3 (Q9NY46 whole entry, looked up): as the sequence (Q9NY46 whole entry) above

**Q.** With `COCn1c(Cc2ccc(Cl)c(Cl)c2)nnc1-c1ccc(S(=O)(=O)Nc2nccs2)cc1` [Compound 97, 4-[5-(3,4-Dichloro-benzyl)-4-methoxymethyl-4H-[1,2,4]triazol-3-yl]-N-thiazol-2-yl-benzenesulfonamide] as the molecule, how does the pIC50 (hSCN3A) read?
**A.** 6.00 to 6.30

**Q.** With `O=S(=O)(NCc1nccs1)c1ccc(-c2nc(Cc3cc(F)cc(F)c3)c[nH]2)cc1` [Compound 98, 4-[4-(3,5-Difluoro-benzyl)-1H-imidazol-2-yl]-N-thiazol-2-ylmethyl-benzenesulfonamide] as the molecule, how does the pIC50 (hSCN3A) read?
**A.** < 6.00

**Q.** With `CC1(c2ccc(S(=O)(=O)Nc3nccs3)cc2)C(=O)NC(=O)N1Cc1ccc(Cl)c(Cl)c1` (stereo not shown) [Compound 99, 4-[3-(3,4-Dichloro-benzyl)-4-methyl-2,5-dioxo-imidazolidin-4-yl]-N-thiazol-2-yl-benzenesulfonamide] as the molecule, how does the pIC50 (hSCN3A) read?
**A.** < 6.00

**Q.** With `CC1(c2ccc(S(=O)(=O)Nc3nccs3)cc2)NC(=O)N(Cc2ccc(Cl)c(Cl)c2)C1=O` (stereo not shown) [Compound 100, 4-[1-(3,4-Dichloro-benzyl)-4-methyl-2,5-dioxo-imidazolidin-4-yl]-N-thiazol-2-yl-benzenesulfonamide] as the molecule, how does the pIC50 (hSCN3A) read?
**A.** < 6.00

**Q.** With `CC1(Cc2ccc(Cl)c(Cl)c2)N=C(c2ccc(S(=O)(=O)Nc3nccs3)cc2)NC1=O` (stereo not shown) [Compound 107, 4-[4-(3,4-Dichloro-benzyl)-4-methyl-5-oxo-4,5-dihydro-1H-imidazol-2-yl]-N-thiazol-2-yl-benzenesulfonamide] as the molecule, how does the pIC50 (hSCN3A) read?
**A.** < 6.00

**Q.** With `O=S(=O)(Nc1nccs1)c1ccc(-c2nc(Cc3ccc(Cl)cc3)n[nH]2)cc1F` [Compound 114, 4-[5-(4-Chloro-benzyl)-2H-[1,2,4]triazol-3-yl]-2-fluoro-n-thiazol-2-yl-benzenesulfonamide] as the molecule, how does the pIC50 (hSCN3A) read?
**A.** > 7.00

**Q.** With `O=S(=O)(Nc1nccs1)c1ccc(-c2nc(COc3c(Cl)cccc3Cl)n[nH]2)cc1F` [Compound 115, 4-[5-(2,6-Dichloro-phenoxymethyl)-2H-[1,2,4]triazol-3-yl]-2-fluoro-n-thiazol-2-yl-benzenesulfonamide] as the molecule, how does the pIC50 (hSCN3A) read?
**A.** 6.30 to 7.00

**Q.** With `O=S(=O)(Nc1nccs1)c1ccc(-c2nc(-c3ncc(C(F)(F)F)cc3Cl)n[nH]2)cc1F` [Compound 116, 4-[5-(3-Chloro-5-trifluoromethyl-pyridin-2-yl)-2H-[1,2,4]triazol-3-yl]-2-fluoro-n-thiazol-2-yl-benzenesulfonamide] as the molecule, how does the pIC50 (hSCN3A) read?
**A.** 6.30 to 7.00

**Q.** With `O=S(=O)(Nc1nccs1)c1ccc(-c2nc(COc3ncc(C(F)(F)F)cc3Cl)n[nH]2)cc1` [Compound 117, 4-[5-(3-Chloro-5-trifluoromethyl-pyridin-2-yloxymethyl)-2H-[1,2,4]triazol-3-yl]-n-thiazol-2-yl-benzenesulfonamide] as the molecule, how does the pIC50 (hSCN3A) read?
**A.** 6.00 to 6.30

**Q.** With `O=S(=O)(Nc1nccs1)c1ccc(-c2nnc(COc3ccc(C(F)(F)F)cn3)[nH]2)cc1` [Compound 118, N-thiazol-2-yl-4-[5-(5-trifluoromethyl-pyridin-2-yloxymethyl)-4H-[1,2,4]triazol-3-yl]-benzenesulfonamide] as the molecule, how does the pIC50 (hSCN3A) read?
**A.** < 6.00

**Q.** With `O=S(=O)(Nc1nccs1)c1ccc(-c2nc(COc3c(Cl)cccc3Cl)n[nH]2)cc1` [Compound 119, 4-[5-(2,6-Dichloro-phenoxymethyl)-2H-[1,2,4]triazol-3-yl]-n-thiazol-2-yl-benzenesulfonamide] as the molecule, how does the pIC50 (hSCN3A) read?
**A.** < 6.00

**Q.** With `O=S(=O)(Nc1nccs1)c1ccc(-c2nnc(COc3ncc(Cl)cc3Cl)[nH]2)cc1` [Compound 120, 4-[5-(3,5-Dichloro-pyridin-2-yloxymethyl)-4H-[1,2,4]triazol-3-yl]-n-thiazol-2-yl-benzenesulfonamide] as the molecule, how does the pIC50 (hSCN3A) read?
**A.** < 6.00

**Q.** With `O=S(=O)(Cc1ncc(Cl)s1)c1ccc(-c2nc(CCc3cc(Cl)cc(Cl)c3)c[nH]2)cc1` [Compound 122, 5-Chloro-2-(4-{4-[2-(3,5-dichloro-phenyl)-ethyl]-1H-imidazol-2-yl}-benzenesulfonylmethyl)-thiazole] as the molecule, how does the pIC50 (hSCN3A) read?
**A.** > 7.00

**Q.** With `O=S(=O)(Nc1nccs1)c1ccc(-c2cc(CCCOc3ccc(Cl)cc3Cl)[nH]n2)cc1` [Compound 123, 4-{5-[3-(2,4-Dichloro-phenoxy)-propyl]-1H-pyrazol-3-yl}-N-thiazol-2-yl-benzenesulfonamide] as the molecule, how does the pIC50 (hSCN3A) read?
**A.** 6.30 to 7.00

**Q.** With `O=S(=O)(Nc1nccs1)c1ccc(NCC(c2ccccc2)c2ccccc2)nc1` [Compound 124, 6-(2,2-Diphenyl-ethylamino)-pyridine-3-sulfonic acid thiazol-2-ylamide] as the molecule, how does the pIC50 (hSCN3A) read?
**A.** 6.00 to 6.30

**Q.** With `NC1=N[C@H](O)[C@H]2[C@H]3O[C@]4(O)O[C@@H]([C@@H](O)[C@@]2(N1)[C@@H]4O)[C@]3(O)CO` [TTX, tetrodotoxin] as the molecule, how does the pIC50 (Nav1.3) read?
**A.** 7.82

**Q.** And the pIC50 (Nav1.9)?
**A.** 6.00

**Q.** And the pIC50 (Nav1.8)?
**A.** 4.30

**Q.** And the pIC50 (Nav1.2)?
**A.** 8.00

**Q.** What about the pIC50 (Nav1.1) of the same molecule?
**A.** 8.00

**Q.** And the pIC50 (Nav1.6)?
**A.** 8.22

**Q.** For `NCC1(CC(=O)O)CCCCC1` [gabapentin], which “patients respond to gabapentin treatment for neuropathic pain” value [1] is on record?
**A.** 30%
